In one data set the target is T1, α1d-AR (Homo sapiens, UniProt P25100).
T1 construct: expressed in transfected cells; host or cells: COS-7 cells (African Green monkey kidney), membranes
T1 sequence (P25100 1-572): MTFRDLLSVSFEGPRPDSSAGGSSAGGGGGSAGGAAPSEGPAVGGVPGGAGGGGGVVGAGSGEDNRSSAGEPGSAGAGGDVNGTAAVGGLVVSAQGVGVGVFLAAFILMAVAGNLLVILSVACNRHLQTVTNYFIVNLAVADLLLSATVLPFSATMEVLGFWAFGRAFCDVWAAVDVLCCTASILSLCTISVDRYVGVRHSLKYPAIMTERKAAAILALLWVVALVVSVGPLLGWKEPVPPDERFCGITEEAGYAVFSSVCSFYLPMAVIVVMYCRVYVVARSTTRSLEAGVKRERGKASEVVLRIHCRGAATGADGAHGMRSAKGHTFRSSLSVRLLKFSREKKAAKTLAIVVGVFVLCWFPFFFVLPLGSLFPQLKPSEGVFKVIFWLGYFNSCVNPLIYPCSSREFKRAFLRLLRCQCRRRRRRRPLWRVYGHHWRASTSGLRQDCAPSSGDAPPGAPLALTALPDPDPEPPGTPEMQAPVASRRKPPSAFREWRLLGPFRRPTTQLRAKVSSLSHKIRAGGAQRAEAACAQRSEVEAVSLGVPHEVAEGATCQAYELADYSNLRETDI
Briefly: α1-Adrenergic Receptor Binding Assay, 125I-HEAT radio-ligand binding, transfected COS-7 cell membranes, α1d subtype. The conditions noted are these: COS-7 membranes. In short, it runs like this: (§1)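 Competition binding of ¹²⁵I-HEAT ([…]) on membranes from COS-7 cells transfected with each human α1-AR subtype; membrane 0.5 ng/μL (α1a, α1b) or 13 ng/μL (α1d). Compound […] in half-log steps, triplicates, 1 hr at rt. Filtration and scintillation counting; Ki (nM) derived.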

A further data set deals with T2, α1a-AR (Homo sapiens, UniProt P35348).
T2 construct: expressed in transfected cells; host or cells: COS-7 cells (African Green monkey kidney), membranes
T2 sequence (P35348 1-466): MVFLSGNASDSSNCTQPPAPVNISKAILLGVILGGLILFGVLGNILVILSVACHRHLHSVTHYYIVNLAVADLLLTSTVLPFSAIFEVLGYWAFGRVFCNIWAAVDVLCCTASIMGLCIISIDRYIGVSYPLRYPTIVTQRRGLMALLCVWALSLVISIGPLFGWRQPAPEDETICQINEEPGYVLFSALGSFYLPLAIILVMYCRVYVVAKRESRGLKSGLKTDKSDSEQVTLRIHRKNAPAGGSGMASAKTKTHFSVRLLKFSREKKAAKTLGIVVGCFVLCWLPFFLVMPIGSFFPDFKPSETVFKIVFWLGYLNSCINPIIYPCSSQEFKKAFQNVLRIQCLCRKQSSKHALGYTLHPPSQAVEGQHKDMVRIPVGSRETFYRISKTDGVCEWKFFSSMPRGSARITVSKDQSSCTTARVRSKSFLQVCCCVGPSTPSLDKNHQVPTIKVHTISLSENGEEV
Briefly: α1-Adrenergic Receptor Binding Assay, 125I-HEAT radio-ligand binding, transfected COS-7 cell membranes, α1a subtype. The conditions noted are these: COS-7 membranes. The essentials: as §1

Another data set addresses T3, α1b-AR (Homo sapiens, UniProt P35368).
T3 construct: expressed in transfected cells; host or cells: COS-7 cells (African Green monkey kidney), membranes
T3 sequence (P35368 1-520): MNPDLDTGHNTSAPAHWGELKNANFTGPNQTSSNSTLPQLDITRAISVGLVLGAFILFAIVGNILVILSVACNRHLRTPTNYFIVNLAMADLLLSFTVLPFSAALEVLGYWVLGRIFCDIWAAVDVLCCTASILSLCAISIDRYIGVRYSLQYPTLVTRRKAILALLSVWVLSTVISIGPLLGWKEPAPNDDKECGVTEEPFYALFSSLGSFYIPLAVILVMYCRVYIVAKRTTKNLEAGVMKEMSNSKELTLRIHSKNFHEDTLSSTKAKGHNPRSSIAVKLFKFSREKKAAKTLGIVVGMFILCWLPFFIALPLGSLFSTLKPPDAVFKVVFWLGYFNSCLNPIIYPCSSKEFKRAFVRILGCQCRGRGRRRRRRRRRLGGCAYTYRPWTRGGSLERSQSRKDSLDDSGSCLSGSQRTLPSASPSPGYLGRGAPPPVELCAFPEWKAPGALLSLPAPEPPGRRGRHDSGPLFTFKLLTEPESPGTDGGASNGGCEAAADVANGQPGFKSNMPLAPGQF
Briefly: α1-Adrenergic Receptor Binding Assay, 125I-HEAT radio-ligand binding, transfected COS-7 cell membranes, α1b subtype. The conditions noted are these: COS-7 membranes. In short, it runs like this:
as §1

The mark [1] stands for this setting: average value, read-out: Alpha 1 Ki α1d (1) Average Value.
Where [2] appears, read: individual values, read-out: Alpha 1 Ki α1d (2) Individual Values.
The mark [3] stands for this setting: average value, read-out: Alpha 1 Ki α1a (1) Average Value.
The mark [4] stands for this setting: individual values, read-out: Alpha 1 Ki α1a (2) Individual Values.
Setting [5] is: average value, read-out: Alpha 1 Ki α1b (1) Average Value.
The mark [6] stands for this setting: individual values, read-out: Alpha 1 Ki α1b (2) Individual Values.

These results are taken from patent US20080221116A1, “ISOXAZOLINE ALPHA 1a/1d ADRENORECEPTOR ANTAGONISTS” (priority 2006, published 2008).

The structures appear in SMILES notation. “And” between values parts separate entries of the source, which are not always exact repeats. Identical values can stand only once. Like-named read-outs stand apart in the source and are kept apart here.

One may read the Ki as a dissociation constant, usually derived from enzyme kinetics or from competition with a known ligand. As usually defined, the melting point is the temperature, or range, at which the solid turns liquid.

In the case of `COc1cc2c(cc1OC)N(C(=O)C1=NOC(CN3CCN(c4ccccc4OC(C)C)CC3)C1)CC2` (centres unmarked) [Compound 23, (5,6-dimethoxy-2,3-dihydro-indol-1-yl)-{5-[4-(2-isopropoxy-phenyl)-piperazin-1-ylmethyl]-4,5-dihydro-isoxazol-3-yl}-methanone], the inhibition constant Ki was determined as 6.56 nM on α1d-AR (setting [1]); 6.56 nM on α1d-AR (setting [2]); 5.65 nM on α1a-AR (setting [3]); 5.65 nM at α1a-AR (setting [4]); 259 nM on α1b-AR (setting [5]); 259 nM on α1b-AR (setting [6]).
Take `CC(=O)N1CCc2ccc(NC(=O)C3=NOC(CN4CCN(c5ccccc5OC(C)C)CC4)C3)cc21` (centres unmarked) [Compound 24, 5-[4-(2-isopropoxy-phenyl)-piperazin-1-ylmethyl]-4,5-dihydro-isoxazole-3-carboxylic acid (1-acetyl-2,3-dihydro-1H-indol-6-yl)-amide]: the Ki on α1d-AR (setting [1]) amounted to 3.95 nM; at α1d-AR (setting [2]) it was 3.95 nM; on α1a-AR (setting [3]), 5.46 nM; on α1a-AR (setting [4]) it was 5.46 nM; at α1b-AR (setting [5]), 101 nM; at α1b-AR (setting [6]), 101 nM.
Take `Cc1ccc2c(c1)CCN2C(=O)C1=NOC(CN2CCN(c3ccccc3OC(C)C)CC2)C1` (centres unmarked) [Compound 25, {5-[4-(2-isopropoxy-phenyl)-piperazin-1-ylmethyl]-4,5-dihydro-isoxazol-3-yl}-(5-methyl-2,3-dihydro-indol-1-yl)-methanone]: the Ki came out at 0.12 nM on α1d-AR (setting [1]); 0.12 nM on α1d-AR (setting [2]); 3.5 nM at α1a-AR (setting [3]); 3.5 nM at α1a-AR (setting [4]); 71 nM on α1b-AR (setting [5]); 71 nM on α1b-AR (setting [6]).
Turning to `CC(C)Oc1ccccc1N1CCN(CC2CC(C(=O)N3CCCc4ccccc43)=NO2)CC1` (centres unmarked) [Compound 26, (3,4-dihydro-2H-quinolin-1-yl)-{5-[4-(2-isopropoxy-phenyl)-piperazin-1-ylmethyl]-4,5-dihydro-isoxazol-3-yl}-methanone], the Ki at α1d-AR (setting [1]) came to 11 nM; at α1d-AR (setting [2]), 11 nM; on α1a-AR (setting [3]) it was 6.7 nM; at α1a-AR (setting [4]) it was 6.7 nM; at α1b-AR (setting [5]), 258 nM; on α1b-AR (setting [6]), 258 nM.
Regarding `CC(C)Oc1ccccc1N1CCN(CC2CC(C(=O)N3CCC(Cc4ccccc4)CC3)=NO2)CC1` (centres unmarked) [Compound 27, (4-benzyl-piperidin-1-yl)-{5-[4-(2-isopropoxy-phenyl)-piperazin-1-ylmethyl]-4,5-dihydro-isoxazol-3-yl}-methanone], the Ki at α1d-AR (setting [1]) is 6.5 nM; on α1d-AR (setting [2]), 6.5 nM; on α1a-AR (setting [3]) it was 11.6 nM; on α1a-AR (setting [4]), 11.6 nM; at α1b-AR (setting [5]), 219 nM; on α1b-AR (setting [6]) it was 219 nM.
On to `CC(C)Oc1ccccc1N1CCN(CC2CC(C(=O)N3CCOCC3)=NO2)CC1` (centres unmarked) [Compound 28, {5-[4-(2-isopropoxy-phenyl)-piperazin-1-ylmethyl]-4,5-dihydro-isoxazol-3-yl}-morpholin-4-yl-methanone], for which the inhibitory constant (Ki) at α1d-AR (setting [1]) was found to be 27.2 nM; at α1d-AR (setting [2]) it was 27.2 nM; at α1a-AR (setting [3]), 3 nM; on α1a-AR (setting [4]), 3 nM; on α1b-AR (setting [5]) it was 691 nM; on α1b-AR (setting [6]), 691 nM.
With `CC(C)Oc1ccccc1N1CCN(CC2CC(C(=O)N3CCC(Oc4ccccc4)CC3)=NO2)CC1` (centres unmarked) [Compound 29, {5-[4-(2-isopropoxy-phenyl)-piperazin-1-ylmethyl]-4,5-dihydro-isoxazol-3-yl}-(4-phenoxy-piperidin-1-yl)-methanone], the Ki at α1d-AR (setting [1]) was 8.2 nM; at α1d-AR (setting [2]) it was 5.6 nM and 10.8 nM; at α1a-AR (setting [3]), 6.8 nM; at α1a-AR (setting [4]), 2.2 nM and 11.4 nM; at α1b-AR (setting [5]) it was 672 nM; at α1b-AR (setting [6]) it was 1010 nM and 333 nM.
In turn, `CC(C)Oc1ccccc1N1CCN(CC2CC(C(=O)N3CCC(S(=O)(=O)c4ccccc4)CC3)=NO2)CC1` (centres unmarked) [Compound 30, (4-benzenesulfonyl-piperidin-1-yl)-{5-[4-(2-isopropoxy-phenyl)-piperazin-1-ylmethyl]-4,5-dihydro-isoxazol-3-yl}-methanone] yielded a melting point of 74 to 76 °C. Besides, the Ki at α1d-AR (setting [1]) is 4.5 nM. Besides, on α1d-AR (setting [2]), the Ki is 5.8 nM and 3.2 nM. Further, the Ki on α1a-AR (setting [3]) stood at 3.4 nM. On α1a-AR (setting [4]), the inhibition constant Ki amounted to 3.4 nM. Also, the inhibitory constant (Ki) at α1b-AR (setting [5]) came out at 173 nM. In addition, the inhibitory constant (Ki) at α1b-AR (setting [6]) is 164 nM and 183 nM.
For the molecule `CC(C)Oc1ccccc1N1CCN(CC2CC(C(=O)N3CCC(c4ccccc4)(c4ccccc4)CC3)=NO2)CC1` (centres unmarked) [Compound 31, (4,4-diphenyl-piperidin-1-yl)-{5-[4-(2-isopropoxy-phenyl)-piperazin-1-ylmethyl]-4,5-dihydro-isoxazol-3-yl}-methanone], the melting point lay within 61 to 63 °C. Further, the Ki at α1d-AR (setting [1]) stood at 9.6 nM. Further, the Ki on α1d-AR (setting [2]) is 9.6 nM. The inhibitory constant (Ki) on α1a-AR (setting [3]) stood at 25 nM. On α1a-AR (setting [4]), the inhibition constant Ki was determined as 25 nM. Also, the Ki at α1b-AR (setting [5]) was 248 nM. Also, on α1b-AR (setting [6]), the Ki was 248 nM.
Consider `CC(C)Oc1ccccc1N1CCN(CC2CC(C(=O)N3CCC(Oc4ccccn4)CC3)=NO2)CC1` (centres unmarked) [Compound 32, {5-[4-(2-isopropoxy-phenyl)-piperazin-1-ylmethyl]-4,5-dihydro-isoxazol-3-yl}-[4-(pyridin-2-yloxy)-piperidin-1-yl]-methanone], for which the inhibition constant (Ki) at α1d-AR (setting [1]) was determined as 44.6 nM; on α1d-AR (setting [2]) it was 44.6 nM; at α1a-AR (setting [3]), 41.7 nM; on α1a-AR (setting [4]), 41.7 nM; at α1b-AR (setting [5]), 264 nM; at α1b-AR (setting [6]), 264 nM.
Consider `COc1ccccc1C1CCN(C(=O)C2=NOC(CN3CCN(c4ccccc4OC(C)C)CC3)C2)CC1` (centres unmarked) [Compound 33, {5-[4-(2-isopropoxy-phenyl)-piperazin-1-ylmethyl]-4,5-dihydro-isoxazol-3-yl}-[4-(2-methoxy-phenyl)-piperidin-1-yl]-methanone], for which the Ki on α1d-AR (setting [1]) was determined as 20 nM; on α1d-AR (setting [2]) it was 20 nM; on α1a-AR (setting [3]), 19 nM; on α1a-AR (setting [4]) it was 19 nM; on α1b-AR (setting [5]), 254 nM; on α1b-AR (setting [6]) it was 254 nM.
As for `CC(C)Oc1ccccc1N1CCN(CC2CC(C(=O)N3CCC(Oc4ccc(Cl)cc4)CC3)=NO2)CC1` (centres unmarked) [Compound 34, [4-(4-chloro-phenoxy)-piperidin-1-yl]-{5-[4-(2-isopropoxy-phenyl)-piperazin-1-ylmethyl]-4,5-dihydro-isoxazol-3-yl}-methanone], the Ki on α1d-AR (setting [1]) was found to be 27 nM; on α1d-AR (setting [2]), 27 nM; at α1a-AR (setting [3]) it was 40 nM; on α1a-AR (setting [4]) it was 40 nM; on α1b-AR (setting [5]), 255 nM; at α1b-AR (setting [6]), 255 nM.
On to `CC(C)Oc1ccccc1N1CCN(CC2CC(C(=O)N3CCCC3)=NO2)CC1` (centres unmarked) [Compound 35, {5-[4-(2-isopropoxy-phenyl)-piperazin-1-ylmethyl]-4,5-dihydro-isoxazol-3-yl}-pyrrolidin-1-yl-methanone], for which the Ki at α1d-AR (setting [1]) was 9 nM; at α1d-AR (setting [2]) it was 11 nM and 7 nM; at α1a-AR (setting [3]), 3.65 nM; at α1a-AR (setting [4]), 1.6 nM and 5.7 nM; at α1b-AR (setting [5]), 212 nM; on α1b-AR (setting [6]), 183 nM and 242 nM.
